Source: the supplement of paper PMC10627819

Key:
B. subtilis 168 = assay: fitness (endpoint OD595 vs no drug) (fraction); higher = more growth
Method in brief: (§1)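 Background-subtracted growth curves were the basis for fitness, taken as the optical density at entry into stationary phase over the robust mean of no-drug control wells. A cap of 1 was applied. The curves came from OD595 readings every 30 min for 14 h at 37 °C, in 384-well plates seeded at OD595 0.01 with 30 µl, or 55 µl for S. pneumoniae.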

S. pneumoniae D39V = assay: as above
Method in brief: as §1

CN(C)[C@@H]1C(O)=C(C(N)=O)C(=O)[C@@]2(O)C(O)=C3C(=O)c4c(O)ccc(Cl)c4[C@@](C)(O)[C@H]3C[C@@H]12 [Chlortetracycline] + CC1=C(C(=O)O)N2C(=O)[C@@H](NC(=O)[C@H](N)c3ccccc3)[C@H]2SC1 [Cephalexin]
fitness
Details	first compound 0.0475 µg/mL	first compound 0.095 µg/mL	first compound 0.19 µg/mL	first compound 0.375 µg/mL	first compound 0.75 µg/mL	first compound 1.5 µg/mL
B. subtilis 168, partner 0.125 µg/mL	0.922	0.708	0.437	–	–	–
B. subtilis 168, partner 0.25 µg/mL	0.918	0.818	0.534	–	–	–
B. subtilis 168, partner 0.5 µg/mL	0.852	0.811	0.551	–	–	–
S. pneumoniae D39V, partner 1 µg/mL	–	–	–	0.0846	0.0412	0.0388
S. pneumoniae D39V, partner 2 µg/mL	–	–	–	0.0341	0.0584	0.0428
S. pneumoniae D39V, partner 4 µg/mL	–	–	–	0.0429	0.0665	0.0379

fitness, one replicate
Details	first compound 0.012 µg/mL	first compound 0.024 µg/mL	first compound 0.0475 µg/mL	first compound 0.048 µg/mL	first compound 0.095 µg/mL	first compound 0.19 µg/mL
B. subtilis 168, partner 1 µg/mL	–	–	0.936	–	0.827	0.606
S. pneumoniae D39V, partner 0.125 µg/mL	0.933	0.86	–	0.797	–	–
S. pneumoniae D39V, partner 0.25 µg/mL	0.872	0.809	–	0.762	–	–
S. pneumoniae D39V, partner 0.5 µg/mL	0.883	0.84	–	0.706	–	–

CN(C)[C@@H]1C(O)=C(C(N)=O)C(=O)[C@@]2(O)C(O)=C3C(=O)c4c(O)ccc(Cl)c4[C@@](C)(O)[C@H]3C[C@@H]12 [Chlortetracycline] + C[C@H]1c2cccc(O)c2C(=O)C2=C(O)[C@]3(O)C(=O)C(C(N)=O)=C(O)[C@@H](N(C)C)[C@@H]3[C@@H](O)[C@@H]21 [Doxycycline]
Details	fitness
B. subtilis 168, first compound 0.0475 µg/mL, partner 0.02 µg/mL	0.858
B. subtilis 168, first compound 0.0475 µg/mL, partner 0.04 µg/mL	0.658
B. subtilis 168, first compound 0.095 µg/mL, partner 0.02 µg/mL	0.735
B. subtilis 168, first compound 0.095 µg/mL, partner 0.04 µg/mL	0.553
B. subtilis 168, first compound 0.19 µg/mL, partner 0.08 µg/mL	0.0672
S. pneumoniae D39V, first compound 0.012 µg/mL, partner 0.0155 µg/mL	0.921
S. pneumoniae D39V, first compound 0.024 µg/mL, partner 0.0155 µg/mL	0.88
S. pneumoniae D39V, first compound 0.048 µg/mL, partner 0.0155 µg/mL	0.803
S. pneumoniae D39V, first compound 0.375 µg/mL, partner 0.0155 µg/mL	0.0318
S. pneumoniae D39V, first compound 0.375 µg/mL, partner 0.031 µg/mL	0.0187
S. pneumoniae D39V, first compound 0.375 µg/mL, partner 0.062 µg/mL	0.0418
S. pneumoniae D39V, first compound 0.75 µg/mL, partner 0.0155 µg/mL	0.0248
S. pneumoniae D39V, first compound 0.75 µg/mL, partner 0.031 µg/mL	0.0352
S. pneumoniae D39V, first compound 0.75 µg/mL, partner 0.062 µg/mL	0.0311
S. pneumoniae D39V, first compound 1.5 µg/mL, partner 0.0155 µg/mL	0.0258
S. pneumoniae D39V, first compound 1.5 µg/mL, partner 0.031 µg/mL	0.067
S. pneumoniae D39V, first compound 1.5 µg/mL, partner 0.062 µg/mL	0.047

fitness, S. pneumoniae D39V, one replicate
Details	partner 0.003875 µg/mL	partner 0.00775 µg/mL	partner 0.031 µg/mL	partner 0.062 µg/mL
first compound 0.012 µg/mL	0.909	0.91	0.8	0.707
first compound 0.024 µg/mL	0.834	0.808	0.821	0.774
first compound 0.048 µg/mL	0.774	0.809	0.745	0.614

CN(C)[C@@H]1C(O)=C(C(N)=O)C(=O)[C@@]2(O)C(O)=C3C(=O)c4c(O)ccc(Cl)c4[C@@](C)(O)[C@H]3C[C@@H]12 [Chlortetracycline] + C[C@H]1COc2c(N3CCN(C)CC3)c(F)cc3c(=O)c(C(=O)O)cn1c23 [Levofloxacin]
fitness, B. subtilis 168, one replicate
Details	first compound 0.0475 µg/mL	first compound 0.095 µg/mL	first compound 0.19 µg/mL
partner 0.001 µg/mL	0.924	0.912	0.674
partner 0.0078 µg/mL	0.907	0.824	0.623

Details	fitness
B. subtilis 168, first compound 0.0475 µg/mL, partner 0.002 µg/mL	0.898
B. subtilis 168, first compound 0.0475 µg/mL, partner 0.0039 µg/mL	0.855
B. subtilis 168, first compound 0.0475 µg/mL, partner 0.0312 µg/mL	0.0308
B. subtilis 168, first compound 0.0475 µg/mL, partner 0.0625 µg/mL	0.0341
B. subtilis 168, first compound 0.0475 µg/mL, partner 0.125 µg/mL	0.0327
B. subtilis 168, first compound 0.095 µg/mL, partner 0.002 µg/mL	0.854
B. subtilis 168, first compound 0.095 µg/mL, partner 0.0039 µg/mL	0.854
B. subtilis 168, first compound 0.095 µg/mL, partner 0.0312 µg/mL	0.0231
B. subtilis 168, first compound 0.095 µg/mL, partner 0.0625 µg/mL	0.0369
B. subtilis 168, first compound 0.095 µg/mL, partner 0.125 µg/mL	0.028
B. subtilis 168, first compound 0.19 µg/mL, partner 0.002 µg/mL	0.593
B. subtilis 168, first compound 0.19 µg/mL, partner 0.0039 µg/mL	0.61
B. subtilis 168, first compound 0.19 µg/mL, partner 0.0312 µg/mL	0.0218
B. subtilis 168, first compound 0.19 µg/mL, partner 0.0625 µg/mL	0.054
B. subtilis 168, first compound 0.19 µg/mL, partner 0.125 µg/mL	0.032
S. pneumoniae D39V, first compound 0.012 µg/mL, partner 0.1725 µg/mL	0.949
S. pneumoniae D39V, first compound 0.012 µg/mL, partner 0.345 µg/mL	0.803
S. pneumoniae D39V, first compound 0.012 µg/mL, partner 0.69 µg/mL	0.603
S. pneumoniae D39V, first compound 0.024 µg/mL, partner 0.1725 µg/mL	0.909
S. pneumoniae D39V, first compound 0.024 µg/mL, partner 0.345 µg/mL	0.88
S. pneumoniae D39V, first compound 0.024 µg/mL, partner 0.69 µg/mL	0.546
S. pneumoniae D39V, first compound 0.048 µg/mL, partner 0.1725 µg/mL	0.869
S. pneumoniae D39V, first compound 0.048 µg/mL, partner 0.345 µg/mL	0.828
S. pneumoniae D39V, first compound 0.375 µg/mL, partner 0.2 µg/mL	0.0411
S. pneumoniae D39V, first compound 0.375 µg/mL, partner 0.4 µg/mL	0.0338
S. pneumoniae D39V, first compound 0.375 µg/mL, partner 0.8 µg/mL	0.0351
S. pneumoniae D39V, first compound 0.75 µg/mL, partner 0.2 µg/mL	0.0448
S. pneumoniae D39V, first compound 0.75 µg/mL, partner 0.4 µg/mL	0.0671
S. pneumoniae D39V, first compound 0.75 µg/mL, partner 0.8 µg/mL	0.0531
S. pneumoniae D39V, first compound 1.5 µg/mL, partner 0.2 µg/mL	0.0471
S. pneumoniae D39V, first compound 1.5 µg/mL, partner 0.4 µg/mL	0.0332
S. pneumoniae D39V, first compound 1.5 µg/mL, partner 0.8 µg/mL	0.0439
